Measurements reported in PubChem BioAssay (NCI).
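Five compound concentrations were applied to cells in 96-well plates for 48 hours; endpoints were derived by simple linear interpolation of the resulting dose-response curve. At the GI50, growth is halved. At the TGI there is no net growth.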

Tests used:
Assay in all cases: NCI tumour cell line growth inhibition, 48 h
[1] = test system: MDA-MB-231 breast
[2] = test system: BT-549 breast
[3] = test system: T-47D breast
[4] = test system: HS 578T breast
[5] = test system: NCI/ADR-RES ovarian
[6] = test system: MDA-MB-435
[7] = test system: DU-145 prostate

Row | SMILES | GI50 [1] [µM] | TGI [1] [µM] | GI50 [2] [µM] | TGI [2] [µM] | GI50 [3] [µM] | TGI [3] [µM] | GI50 [4] [µM] | TGI [4] [µM] | GI50 [5] [µM] | TGI [5] [µM] | GI50 [6] [µM] | TGI [6] [µM] | GI50 [7] [µM] | TGI [7] [µM]
1 | O=C(O)c1cn(C2CC2)c2cc(N3CCN(C(=O)Nc4nc(-c5ccccc5)cs4)CC3)c(F)cc2c1=O | 2.3 | 9.94 | 0.473 | 10.4 | 1.74 | > 100 | 0.861 | 72.1 | 4.82 | > 100 | 1.16 | > 100 | 1.05 | 15.8
2 | O=C(O)C1CCCCC1c1c2ccc(=O)c(O)c-2oc2c(O)c(O)ccc12 (configuration not stated) |  | 38.1 |  |  |  | > 100 |  | > 100 |  |  |  | 44.5 |  | > 100
3 | COc1ccc2c(c1)CC[C@@H]1[C@@H]2CC[C@]2(C)[C@@H](NC(=O)/C=C/c3ccc(O)c(O)c3)CC[C@@H]12 | 2.6 | 15.2 | 5.56 | 20.3 | 17.3 | 43 | 18.5 | 58.4 | 2 | 6.05 | 3.43 | 11.1 | 12.6 | 30.4
4 | Cc1ccc(-c2c3c(nn2-c2ccc(S(N)(=O)=O)cc2)-c2ccccc2C3)cc1 | 14.5 | 37.4 |  |  | 71.3 | > 100 | 13.5 | 36.2 | 23.4 | 68.7 | 18.2 | 34.7 | 15.6 | 33.1
5 | COc1ccc(C(c2ccc(OCCN(C)C)cc2)c2cc3ccccc3c3ccccc23)cc1 (configuration not stated) | 1.68 | 3.22 | 1.78 | 3.35 | 1.47 | 3.12 | 1.66 | 3.62 | 1.71 | 3.39 | 1.71 | 3.14 | 1.77 | 3.37
6 | CCCCCCNC(=O)Oc1ccc(/C(=C(/C)Cc2ccc(OC)cc2)c2ccc(OCCCN(C)C)cc2)cc1 | 15.3 | 29.9 | 15.6 | 30.3 | 11.3 | 27.3 | 15.5 | 35.7 | 15.8 | 31.3 | 13.8 | 27.1 | 16.8 | 31.3
7 | CN(Cc1cccc(F)c1)c1ccc(CO)c(Cl)c1 | 24.7 | > 100 | 17.9 | 60.9 | 0.548 | 3.92 | 25 | > 100 | 17.5 | 58 | 15.7 | 57.6 | 29.7 | > 100
8 | O=C(CN1CCN(c2cc3c(cc2F)c(=O)c(C(=O)O)cn3C2CC2)CC1)Nc1nc(-c2ccc(Cl)cc2)cs1 | 5.09 | 61 | 3.85 | 60.3 | 3.58 | > 100 | 7.19 | 73.7 | 5.62 | > 100 | 3.85 | 94 | 4.03 | 28.4
9 | O=[N+]([O-])c1ccc(Oc2nc(Nc3ccc(O[C@H]4CO[C@H]5[C@@H]4OC[C@@H]5O)c(Cl)c3)ncc2F)c(Cl)c1 | 1.6 | 7.39 | 1.29 | 3.36 | 1.13 | 8.06 | 0.516 | 3.43 | 9.04 | > 100 | 1.2 | 3.5 | 0.917 | 5.45
10 | CC(=O)c1c(CN(C)c2ccccc2)n([O-])c2ccccc2[n+]1=O | 27.1 | > 100 | 25.1 | 86.6 |  |  | 50.7 | > 100 | 19.5 | 55.9 |  |  | 42.1 | > 100
11 | CCN1C(=O)CCCc2c1ccc(Nc1ncc(Cl)c(NC3[C@@H](C(N)=O)[C@@H]4C=C[C@H]3C4)n1)c2OC (some centres not stated) | 1.95 | 14.4 | 3.61 | 17.4 | 1.91 | 14.3 | 1.88 | 8.26 | 2.35 | > 100 | 0.917 | 9.85 | 1.81 | 14.6
12 | Cn1nc(-c2ccc(Cl)cc2)nc2c(=O)n(C)c(=O)nc1-2 | 1.28 | 7.34 | 0.968 | 1.94 | 1.12 | 3.43 | 1.35 | 3.51 | 1.33 | 4.47 | 0.137 | 0.405 | 0.89 | 1.63
13 | COC(=O)C(=CNC(N)=O)C(=O)OC |  |  |  |  |  | > 100 |  | > 100 |  | > 100 |  | > 100 |  | > 100
14 | FC(F)(F)c1ccc(-c2cnc(-n3cc(COCCN4CCCCC4)nn3)nc2NC2CCCCCC2)cc1 | 3.47 | 6.86 | 4.33 | 8.55 | 4.12 | 9.21 | 3.91 | 10.6 | 3.85 | 7.66 | 3.74 | 7.76 | 4.25 | 7.94
15 | C=C1C(=O)O[C@H]2[C@H]1CC/C(COC(=O)CCSCCC(=O)OC/C1=C/CC[C@@]3(C)O[C@H]3[C@H]3OC(=O)C(=C)[C@@H]3CC1)=C\CC[C@@]1(C)O[C@@H]21 | 1.09 | 2.55 | 1.29 | 2.66 | 1.3 | 3.21 | 3.18 | 24.5 | 3.21 | 11 | 1.63 | 4.19 | 1.36 | 2.71
16 | CCOC(=O)c1c(C)n(Cc2ccccc2)c2c1cc(O)c1[nH]c(Cc3ccccc3)nc12 | 20.1 | > 85.9 | 2.39 | 28.8 | 9.74 | > 36.6 | 9.53 | > 57.8 | 18.9 | > 57.9 | > 42.8 | > 100 | 20.5 | > 57.7
17 | COc1cc(OC)c2nccc(NCCCN(C)C)c2c1[N+](=O)[O-] |  | > 100 |  | > 100 |  | > 100 |  | > 100 |  | > 100 |  | > 100 |  | > 100
18 | COc1cc2c(cc1OC)C(Sc1ccc(SC)cc1)c1c(nc(N)c(C#N)c1N)O2 (configuration not stated) | 1.55 | 2.92 | 1.38 | 2.67 | 1.62 | 4.26 | 2.01 | 4.52 |  |  | 1.75 | 3.23 | 1.75 | 3.17
19 | CCC(c1ccc(OC)cc1)C(CC)c1ccc(O)c(CN2CCN(C)CC2)c1 (configuration not stated) | 3.7 | 15.1 | 13.2 | 26.8 | 2.57 | 8.35 | 3.08 | 9.56 | 5.51 | 20.6 | 2.72 | 9.4 | 11.3 | 24.1
20 | Cc1cc2cc3ccc(N(C)C)cc3nc2cc1N | 1.12 | 2.88 | 1.64 | 3.82 | 0.434 | 3.5 | 0.51 | 3.48 | 2.51 | 23.4 | 0.703 | 2.28 | 0.437 | 2.45
21 | COc1cccc(/C=N/NC(=S)NC2CC3CCC2C3)c1O (configuration not stated) | 4.88 | 21.9 | 14.5 | 57.3 | 3.13 | 11.8 | 4.27 | 22.2 | 3.16 | 15.1 | 16.1 | 78.9 | 9.79 | 22.8
22 | COc1cc(-c2cc(-c3ccc(Nc4ccnc5cc(Cl)ccc45)cc3)nc(N3CCOCC3)n2)cc(OC)c1OC | 1.81 | 4 | 2.57 | 7.19 | 2.06 | 4.65 | 2.25 | 5.35 | 2.3 | 7.26 | 1.75 | 3.48 |  | 
23 | CC1=CC(=O)C(C(C)C)=CC1=Nc1cc(Br)c(O)c(Br)c1 | 3.65 | 12.9 | 1.69 | 5.64 | 5.74 | 21.2 | 2.76 | 21.1 |  |  | 2.1 | 6.13 | 3.58 | 11.7
24 | Clc1ccc(-c2csc(Nc3cccc(-c4csc(-c5ccccc5)n4)c3)n2)cc1 | 6.77 | 15.3 | 15.8 | 31.4 |  |  | 20.6 | > 50 | 13 | 24.2 | 9.05 | 21.6 | 9.15 | 17.5
25 | Oc1ccc(O)c(-c2cc(-c3ccc(Cl)cc3)nn2-c2ccccc2)c1 | 2.33 | 6.82 | 21 | 52.3 |  |  | 3.43 | 29.8 |  | 25.3 | 14.9 | 32.1 | 26.1 | 48.3
26 | Cc1ccc(/C=C2\CN(C(=O)C(Cl)Cl)C/C(=C\c3ccc(C)cc3)C2=O)cc1 | 0.337 | 1.57 |  |  |  |  | 0.343 | 3.71 | 0.341 |  | 0.197 | 0.408 | 0.326 | 1.28
